{
  "source": "patent US20130079370A1",
  "about": "“Method for the Inhibition of Deubiquitinating Activity” (priority 2011, published 2013)",
  "type_in_all_cases": "cell-based",
  "key": {"[1]": {"tested_on": "MCF7 cells", "assay": "Microarray based gene expression analysis, chaperone genes", "design": "key to Expression value HSPA4L / Expression value DNAJB1 / Expression value HSPD1 / Expression value DNAJB4 / Expression value HSPA1B / Expression value HSPH1 / Expression value HSPA4 / Expression value DNAJB9 / Expression value DNAJA1 / Expression value HSPA1A / Expression value HSPA6 / Expression value DNAJA4: MAS5-normalized array expression, arbitrary units", "protocol": "The microarray based gene expression analysis and the Connectivity Map (CMAP) analysis was performed as previously described (40). Briefly, MCF7 cells were exposed to b-AP15 (1 μM, 6 h) or vehicle (0.1% DMSO, 6 h). RNA was isolated (RNeasy miniprep kit, Qiagen) followed by quality control, labelling and hybridization to Genome U133 Plus 2.0 arrays (Affymetrix Inc). Raw data was normalized using MasS (Affymetrix Inc.) and rank ordered. For selection of the 30 most induced (up tags) and the 30 most suppressed (down tags) transcripts the following criteria were used: Up tags, present call and expression over 300 arbitrary in the b-AP15 experiment; Down tags, present call after both b-AP15 and vehicle treatment, and expression over 300 arbitrary units in the vehicle experiment. For CMAP compatibility only tags (i.e. probes) present on HG U133A were used. Raw and normalized expression data have been deposited at Gene Expression Omnibus (http://www.ncbi.nlm. nih.gov/geo/) with accession number GSE24150.\nExpression of chaperone genes observed in bAP15-treated cells (Table 1) is indicative of induction of a proteotoxic response."}, "[2]": {"tested_on": "HTC-116, hTERT-RPE1 and PBMC", "assay": "Cytotoxic activity, FMCA method", "conditions": "72 h", "protocol": "For the FMCA assay cells were seeded in the drug-prepared 384-well plates using the pipetting robot Precision 2000 (Bio-Tek Instruments Inc., Winooski, Vt.). The plates were incubated for 72 h and then transferred to an integrated HTS SAIGAN Core System consisting of an ORCA robot (Beckman Coulter) with CO2 incubator (Cytomat 2C, Kendro, Sollentuna, Sweden), dispenser module (Multidrop 384, Titertek, Huntsville, Ala.), washer module (ELx 405, Bio-Tek Instruments Inc), delidding station, plate hotels, barcode reader (Beckman Coulter), liquid handler (Biomek 2000, Beckman Coulter) and a multipurpose reader (FLUOstar Optima, BMG Labtech GmbH, Offenburg, Germany) for automated FMCA. Survival index (SI) is defined as the fluorescence of test wells in percentage of controls with blank values subtracted.\nHCT-116 cells were treated with increasing concentrations of b-AP15 for 24 h and the levels of apoptosis were determined by measuring the levels of caspase cleaved cytokeratin-18 (CK18) by ELISA assay (FIG. 6a). HCT-116 cells were treated with increasing concentrations of b-AP15 for 48 h). Cell viability was determined by acid-phosphatase activity assay. […] IC50 was determined from log concentration/effect curves in Graph Pad Prism (GraphPad Software Inc. CA, USA) using non-linear regression analysis (four parameter model with variable Hill slope) (FIGS. 6e, 6f). […]"}, "[3]": {"tested_on": "HCT-116 cells", "assay": "DNA damage markers, immunoblot", "conditions": "cell cycle arrest observed", "protocol": "Treatment with b-AP15 increased their levels in a dose dependent manner without altering the levels of ornithine decarboxylase 1 (ODC1), an ubiquitin-independent proteasome substrate (8).\nHCT-116 cells were treated with b-AP15 or doxorubicin (100 nM, as a positive control for genotoxic stress for 18 h) (FIG. 5). Cell lysates were immuno-blotted with antibodies for phosphorylated p53 and histone H2 Ax marker for DNA damage of for total levels of p53 and β-actin as loading controls."}},
  "data": [
    {"smiles": "C=CC(=O)N1C/C(=C\\c2ccc([N+](=O)[O-])cc2)C(=O)/C(=C/c2ccc([N+](=O)[O-])cc2)C1", "note": "[b-AP15, (3E,5E)-3,5-bis[(4-nitrophenyl)methylidene]-1-(prop-2-enoyl)piperidin-4-one]", "values": [
      {"measurement": "Expression value HSPA6", "setting": "[1]; probe set 117_at, MCF7 cells, 1 μM, 6 h", "result": 24149},
      {"measurement": "Expression value DNAJB1", "setting": "[1]; probe set 200666_s_at, MCF7 cells, 1 μM, 6 h", "result": 33900},
      {"measurement": "Fold change DNAJB1", "setting": "[1]; probe set 200666_s_at, b-AP15 vs vehicle", "result": 6},
      {"measurement": "Expression value HSPA1A", "setting": "[1]; probe set 200800_s_at, MCF7 cells, 1 μM, 6 h", "result": 57478},
      {"measurement": "Fold change HSPA1A", "setting": "[1]; probe set 200800_s_at, b-AP15 vs vehicle", "result": 4},
      {"measurement": "Expression value DNAJA1", "setting": "[1]; probe set 200880_at, MCF7 cells, 1 μM, 6 h", "result": 19970},
      {"measurement": "Fold change DNAJA1", "setting": "[1]; probe set 200880_at, b-AP15 vs vehicle", "result": 4},
      {"measurement": "Expression value HSPA1B", "setting": "[1]; probe set 202581_at, MCF7 cells, 1 μM, 6 h", "result": 31068},
      {"measurement": "Fold change HSPA1B", "setting": "[1]; probe set 202581_at, b-AP15 vs vehicle", "result": 5},
      {"measurement": "Expression value DNAJB9", "setting": "[1]; probe set 202843_at, MCF7 cells, 1 μM, 6 h", "result": 1879},
      {"measurement": "Fold change DNAJB9", "setting": "[1]; probe set 202843_at, b-AP15 vs vehicle", "result": 4},
      {"measurement": "Expression value DNAJB4", "setting": "[1]; probe set 203810_at, MCF7 cells, 1 μM, 6 h", "result": 1955},
      {"measurement": "Expression value DNAJB4", "setting": "[1]; probe set 203811_s_at, MCF7 cells, 1 μM, 6 h", "result": 960},
      {"measurement": "Fold change DNAJB4", "setting": "[1]; probe set 203811_s_at, b-AP15 vs vehicle", "result": 5},
      {"measurement": "Expression value HSPA4L", "setting": "[1]; probe set 205543_at, MCF7 cells, 1 μM, 6 h", "result": 5452},
      {"measurement": "Expression value HSPH1", "setting": "[1]; probe set 206976_s_at, MCF7 cells, 1 μM, 6 h", "result": 40974},
      {"measurement": "Fold change HSPH1", "setting": "[1]; probe set 206976_s_at, b-AP15 vs vehicle", "result": 5},
      {"measurement": "Expression value HSPA4", "setting": "[1]; probe set 211016_x_at, MCF7 cells, 1 μM, 6 h", "result": 1803},
      {"measurement": "Fold change HSPA4", "setting": "[1]; probe set 211016_x_at, b-AP15 vs vehicle", "result": 4},
      {"measurement": "Expression value DNAJA4", "setting": "[1]; probe set 225061_at, MCF7 cells, 1 μM, 6 h", "result": 21103},
      {"measurement": "Fold change DNAJA4", "setting": "[1]; probe set 225061_at, b-AP15 vs vehicle", "result": 30},
      {"measurement": "Expression value HSPD1", "setting": "[1]; probe set 241716_at, MCF7 cells, 1 μM, 6 h", "result": 487},
      {"measurement": "Fold change HSPD1", "setting": "[1]; probe set 241716_at, b-AP15 vs vehicle", "result": 6},
      {"measurement": "cytotoxic activity, tumor versus normal cell types", "setting": "[2]", "result": "more toxic to the colon carcinoma cell line HTC-116 than to immortalized retinal pigment epithelial cells (hTERT-RPE1) and peripheral blood mononuclear cells (PBMC)"},
      {"measurement": "DNA damage markers phosphorylated p53 (Ser 15), H2AX (Ser 139)", "setting": "[3]", "result": "not associated with increased levels of DNA damage markers"}
    ]}
  ]
}
